{"source": "paper PMC11963564", "about": "(Antimicrobial Agents and Chemotherapy, 2025)", "key": {"[1]": {"test_system": "SARS-CoV-2 Omicron BA.1", "assay": "microbe, parasite or virus in culture", "type": "cell-based"}, "[2]": {"test_system": "SARS-CoV-2 Omicron BA.4", "assay": "microbe, parasite or virus in culture", "type": "cell-based"}, "[3]": {"test_system": "SARS-CoV-2 Omicron BA.5", "assay": "microbe, parasite or virus in culture", "type": "cell-based"}, "[4]": {"test_system": "SARS-CoV-2 Omicron CH.1.1", "assay": "microbe, parasite or virus in culture", "type": "cell-based"}, "[5]": {"test_system": "SARS-CoV-2 Omicron XBB.1.5", "assay": "microbe, parasite or virus in culture", "type": "cell-based"}, "[6]": {"test_system": "SARS-CoV-2 Omicron XBB.1.16", "assay": "microbe, parasite or virus in culture", "type": "cell-based"}, "[7]": {"test_system": "SARS-CoV-2 Omicron EG.5", "assay": "microbe, parasite or virus in culture", "type": "cell-based"}, "[8]": {"test_system": "SARS-CoV-2 Omicron JN.1", "assay": "microbe, parasite or virus in culture", "type": "cell-based"}, "[9]": {"test_system": "SARS-CoV-2 WIV04", "conditions": "cited from earlier work"}, "[10]": {"test_system": "SARS-CoV-2 Delta", "conditions": "cited from earlier work"}, "[11]": {"conditions": "Severe acute respiratory syndrome coronavirus 2, Vero C1008, 48 h"}, "[12]": {"conditions": "Severe acute respiratory syndrome coronavirus 2, Vero C1008, 72 h"}}, "note": "Read-outs that look alike come from different tables or passages of the source."}
{"compound": "CC(C)(C)[C@H](NC(=O)C(F)(F)F)C(=O)N1C[C@H]2[C@@H]([C@H]1C(=O)N[C@H](C#N)C[C@@H]1CCNC1=O)C2(C)C", "note": "[nirmatrelvir, reference compound]", "values": [{"measurement": "IC50", "setting": "[1]; [11]", "result": "57 ± 12", "unit": "nM"}, {"measurement": "IC90", "setting": "[1]; [11]", "result": "142 ± 61", "unit": "nM"}, {"measurement": "IC50", "setting": "[2]; [11]", "result": "72 ± 13", "unit": "nM"}, {"measurement": "IC90", "setting": "[2]; [11]", "result": "157 ± 77", "unit": "nM"}, {"measurement": "IC50", "setting": "[3]; [11]", "result": "90 ± 38", "unit": "nM"}, {"measurement": "IC90", "setting": "[3]; [11]", "result": "341 ± 140", "unit": "nM"}, {"measurement": "IC50", "setting": "[4]; [11]", "result": "26 ± 21", "unit": "nM"}, {"measurement": "IC90", "setting": "[4]; [11]", "result": "59 ± 26", "unit": "nM"}, {"measurement": "IC50", "setting": "[5]; [11]", "result": "22 ± 14", "unit": "nM"}, {"measurement": "IC90", "setting": "[5]; [11]", "result": "84 ± 39", "unit": "nM"}, {"measurement": "IC50", "setting": "[6]; [12]", "result": "101 ± 23", "unit": "nM"}, {"measurement": "IC90", "setting": "[6]; [12]", "result": "262 ± 140", "unit": "nM"}, {"measurement": "IC50", "setting": "[7]; [12]", "result": "98 ± 26", "unit": "nM"}, {"measurement": "IC90", "setting": "[7]; [12]", "result": "617 ± 170", "unit": "nM"}, {"measurement": "IC50", "setting": "[8]; [12]", "result": "98 ± 27", "unit": "nM"}, {"measurement": "IC90", "setting": "[8]; [12]", "result": "469 ± 183", "unit": "nM"}]}
{"compound": "simnotrelvir", "values": [{"measurement": "IC50", "setting": "[1]; read-out: IC50", "result": "148 ± 62", "unit": "nM"}, {"measurement": "IC90", "setting": "[1]; read-out: IC90", "result": "267 ± 82", "unit": "nM"}, {"measurement": "IC50", "setting": "[2]; read-out: IC50", "result": "189 ± 6", "unit": "nM"}, {"measurement": "IC90", "setting": "[2]; read-out: IC90", "result": "250 ± 67", "unit": "nM"}, {"measurement": "IC50", "setting": "[3]; read-out: IC50", "result": "208 ± 55", "unit": "nM"}, {"measurement": "IC90", "setting": "[3]; read-out: IC90", "result": "449 ± 171", "unit": "nM"}, {"measurement": "IC50", "setting": "[4]; read-out: IC50", "result": "65 ± 6", "unit": "nM"}, {"measurement": "IC90", "setting": "[4]; read-out: IC90", "result": "99 ± 52", "unit": "nM"}, {"measurement": "IC50", "setting": "[5]; read-out: IC50", "result": "82 ± 58", "unit": "nM"}, {"measurement": "IC90", "setting": "[5]; read-out: IC90", "result": "254 ± 111", "unit": "nM"}, {"measurement": "IC50", "setting": "[6]; read-out: IC50", "result": "130 ± 20", "unit": "nM"}, {"measurement": "IC90", "setting": "[6]; read-out: IC90", "result": "230 ± 93", "unit": "nM"}, {"measurement": "IC50", "setting": "[7]; read-out: IC50", "result": "174 ± 97", "unit": "nM"}, {"measurement": "IC90", "setting": "[7]; read-out: IC90", "result": "803 ± 236", "unit": "nM"}, {"measurement": "IC50", "setting": "[8]; read-out: IC50", "result": "124 ± 31", "unit": "nM"}, {"measurement": "IC90", "setting": "[8]; read-out: IC90", "result": "684 ± 188", "unit": "nM"}, {"measurement": "IC50", "setting": "[9]", "result": 26, "unit": "nM"}, {"measurement": "IC50", "setting": "[10]", "result": 34, "unit": "nM"}]}
